Test results from patent US20110053896A1, “OSMOLYTES FOR THE TREATMENT OF ALLERGIC OR VIRAL RESPIRATORY DISEASES” (priority 2007, published 2011).

How the values were obtained:
[1] = system: ICAM-1 expression; experiment: Reduction of ICAM-1 expression by DGP in UVA-irradiated ceratinozytes; assay type: cell-based; conditions: Human ceratinozytes pretreated with DGP for 24 hours, UVA radiation
Experimental: Human ceratinozytes were pretreated with DGP for 24 hours. After radiation using UVA rays (environment noxes) the quantity of ICAM-1 was measured.

[2] = system: Balb/c mice sensitized with ovalbumin (acute allergic asthma); experiment: Ovalbumin-sensitized mice, allergic asthma model, intranasal ectoine solution; assay type: in vivo; conditions: 50 μl intranasal, 14 treatments day 0 to 32, compared to 0.9% salt solution
Experimental: Seven-months-old mice of the inbred strain Balb/c were sensitized by injecting them intraperitoneally with a mixture of ovalbumin and aluminum hydroxide contained in a total volume of 200 μl buffer (PBS). The injection was made twice, once on day 0 and once on day 14. The size of each group tested was n=8.
In order to subsequently induce the allergic reaction in the lungs of the mice, i.e. s to trigger the acute allergic asthma, the mice were treated inhalatively with an ovalbumin aerosol for 30 minutes each on days 28 and 38. For this purpose, the mice were placed in a plexiglass chamber, into which a misty 1% OVA solution was introduced through an inhaler.
For ectoine treatment, the animals were anesthetized with a mixture of ketamine and rompune. 50 μl of a sterile ectoine solution or 0.9% salt solution was applied in front of the nostrils with glass capillaries until the solution was completed inhaled. The treatments—14 in all—started on day 0. The last treatment was administered on day 32.
The end points of the study were defined as the bronchial hyperreactivity as measured with a plethysmograph, the b ronchoalveolar lavage (BAL) cellular composition and the release of OVA-specific igE and igG1 antibodies.

[3] = system: ICAM-1 expression; experiment: Inhibition of ICAM-1 expression by ectoine (RT-PCR, UVA radiation); assay type: cell-based; conditions: ceratinzytes pre-incubated for 24 h with 1 mM ectoine, UVA 30 J/cm^2, RT-PCR relative to β-actin
Experimental: ICAM-1 expression was measured using differential reverse transcriptase-PCR (RT-PCR) and the Applied Biosystem Kit. To take account of the normal variations in the gene expression of skin cells, ICAM-1 expression is put into relationship to the constitutively formed house-keeping gene, β-actin. The semi-quantitive analysis of RT-PCR was performed by ion exchange chromatography using a UV spectrophotometer (A260). (A) Non-pretreated, radiated control sample (B) pre-incubated for 24 h with 1 mM RonaCare™ Ectoin and radiated with a single dose of 30 J/cm^2 or (C) pre-incubated for 24 h with 1 mM ectoine, non-irradiated. UVA radiation induces upregulation of ICAM-1 expression.

[4] = system: rats sensitized to ovalbumin (OVA), late allergic reaction; experiment: Ovalbumin-induced allergic asthma in rats, late allergic reaction (hyperreactivity, BAL); assay type: in vivo; conditions: 24 h after the ovalbumin challenge, acetyl-choline hyperreactivity and BAL cell counts, compared to negative control group
From the text: (§1) The study population consisted of 4 treatment groups, a reference group, a sham-sensitized and vehicle-treated negative control group, and a vehicle-treated positive control group. The group size was n=16.
In the first phase of the study, all animals, except for the sham-sensitized group, were systemically sensitized to ovalbumin (OVA) plus adjuvants, the negative control group was given NaCl. On days 7 and 14, the animals were intratracheally boosted with OVA (to enhance the sensitizing effect). […] The two control groups were given only NaCl. After expiry of the waiting period, the animals were anesthetized, orotracheally intubated in a gentle manner and—after placement of an oesophagus catheter and allowing the mice to reach a steady state—their lung functions (including such parameters as tidal volume, breathing frequency, dynamic compliance and lung resistance) were measured body-plethysmographically prior to provocation. The data was collected and evaluated using a computer program (HEM, Notocord/France) specifically developed for these lung function tests.
The late allergic phase was tested 24 h after the ovalbumin challenge. First the animals were tested for airway hyperreactivity to unspecific stimuli. […] Using the lavage liquid, the total and the differential cell counts were determined including the number of esinophiles in the BAL.

[5] = system: rats sensitized to ovalbumin (OVA), early allergic reaction; experiment: Ovalbumin-induced allergic asthma in rats, early allergic reaction (lung function); assay type: in vivo; conditions: intratracheal pretreatment 48 h, 24 h and 2 h before ovalbumin challenge, in comparison to the negative control
From the text: as §1
In the first phase of the study, all animals, except for the sham-sensitized group, were systemically sensitized to ovalbumin (OVA) plus adjuvants, the negative control group was given NaCl. On days 7 and 14, the animals were intratracheally boosted with OVA (to enhance the sensitizing effect). 48 h, 24 h and 2 h before the final inhalative allergen exposure was performed, three groups and a positive control group were subjected to an intratracheal pretreatment with the test substance, ectoine, at three dosage levels. […] After expiry of the waiting period, the animals were anesthetized, orotracheally intubated in a gentle manner and—after placement of an oesophagus catheter and allowing the mice to reach a steady state—their lung functions (including such parameters as tidal volume, breathing frequency, dynamic compliance and lung resistance) were measured body-plethysmographically prior to provocation. The data was collected and evaluated using a computer program (HEM, Notocord/France) specifically developed for these lung function tests.
The lung function parameters were continuously recorded during and after exposure in order to measure bronchospasm.

Row | Structure (SMILES) | inhibition of ICAM-1 expression [1] | effect on bronchial hyperreactivity, BAL cellular composition and release of OVA-specific igE and igG1 antibodies [2] | ICAM-1 induction caused by UVA radiation [3] | effect on the late allergic reaction [4] | effect on lung function parameters (early allergic reaction, bronchospasm) [5]
1 | O=P(O)(OCC(O)CO)OCC(O)CO (centres unmarked) [DGP, 1,1-diglycerol phosphate] | 49% |  |  |  | 
2 | CC1=NCC[C@@H](C(=O)O)N1 [ectoine] |  | significant positive effect | almost completely neutralize | positive effect | significant positive effect
